Measurements: US5208135A, “Preparation and use of dyes” (Minnesota Mining and Manufacturing Company, priority 1990, dated 1993)

Columns and labels:
[1] = Dye stability on storage in light-tight envelope at room temperature; type: physicochemical; settings: for Loss of optical density after storage (thermal bleaching): Example 5 coating, 24 hour storage, light-tight envelope; for Loss of optical density after storage (thermal bleaching) / Loss of dye density during storage / Dye Stability: OD at Day 0 / Dye Stability: OD at Day 7: room temperature; for Loss of dye density during storage: less than 24 hours; for Dye Stability: OD at Day 0 / Dye Stability: OD at Day 7: lighttight envelope
Experimental: However, both Control Dyes 1 and 2 are readily bleached during storage with an 80% loss of dye density in less than 24 hours. Thus the dyes of the invention show increased stability compared with the control dyes.
*Storage is conducted in a lighttight envelope at room temperature.

[2] = Sensitisation of acrylate polymerisation: tungsten light exposure of laminate, acetone development (Example 4); settings: coating; for Acetone Solubility After Exposure: after exposure to 250W tungsten light source for 30 seconds
Experimental: The ability of Dye C of the invention and Control Dyes 1 and 2 to sensitise acrylate polymerisation was evaluated by the following protocol.
A solution of Dye C (0.lg), pentaerythritol tetraacrylate monomer (0.6g), commercially available from Ancomer Chemicals under the trade designation ATM 11, 4-butoxyphenyl phenyl iodonium trifluoroacetate (0.125g) shown below as IOD J, and poly(vinyl butyral) (Butvar B-76) (0.6 g), was made in butanone (95 g) in conditions of diminished light. [drawing 30]
The solution was coated onto 0.01 cm unsubbed poly(ethylene terephthalate) (PET) base at a wet thickness of 24μm and dried. A laminate was prepared by covering the monomer coating with a second 0.01 cm PET sheet by cold pressure rolling. The laminate was imagewise exposed to a 250W tungsten light source for 30 seconds using the stage of an overhead projector. […] Stripping of the cover sheet was more readily completed in exposed areas, whereas, in unexposed areas the monomer coatings partially adhered to the cover sheet. The latent image was developed by immersion in acetone, wherein exposed areas remained adhered to the PET base and unexposed areas were rapidly dissolved to obtain a relief image.

[3] = Absorption maximum and optical density of dye; type: physicochemical; settings: for λmax: Table 1
Experimental: The solution was coated using K-bar 3 onto unsubbed 0.01 cm PET base and the resulting coating dried for 1 hour at 30° C. ("K-bars" are wire wound coating rods manufactured by R.K. Print-Coat Instrument Ltd.) The dried coating was topcoated with an aqueous solution of poly(vinyl alcohol) (8%) containing Tergitol TMN-10, commercially available from Union Carbide, using K-Bar 8 (10 ml 8% poly(vinyl alcohol) containing 1 ml 10% Tergitol TMN-10). The top coating was dried for 12 hours at 30° C. to provide a PVA oxygen-impermeable barrier layer over the photopolymer layer. The inclusion of a PVA barrier layer provides a more controlled imaging element for the evaluation of dye sensitised photopolymerisation than the composite of the previous Example.

CCOC(=O)C(C#N)=CC=CC=CC=CC(C#N)=C(O)OCC [Control Dye 1]
Loss of optical density after storage (thermal bleaching) [1]: lost substantially all optical density | Loss of dye density during storage ([1]; laminate): 80% | Dye Stability: OD at Day 0 [1]: 1.3 | Dye Stability: OD at Day 7 [1]: 0.1 | Acetone Solubility After Exposure [2]: Yes | Acetone Solubility Before Exposure [2]: Yes | λmax [3]: 650 nm

N#CC(C#N)=C1C(=CC=CC=CC2=C(O)c3c(cccc3[N+](=O)[O-])C2=C(C#N)C#N)C(=O)c2c1cccc2[N+](=O)[O-] [Dye C]
Imaging characteristics after storage ([1]; laminate, light tight envelope, 7 days, room temperature prior to exposure): unchanged imaging characteristics | Dye Stability: OD at Day 0 [1]: 0.8 | Dye Stability: OD at Day 7 [1]: 0.8 | Acetone Solubility After Exposure [2]: No | Acetone Solubility Before Exposure [2]: Yes | λmax [3]: 815 nm

O=C1C(=CC=CC=CC=CC2=C(O)c3ccccc3C2=O)C(=O)c2ccccc21 [Control Dye 2]
Loss of optical density after storage (thermal bleaching) [1]: lost substantially all optical density | Loss of dye density during storage ([1]; laminate): 80% | Dye Stability: OD at Day 0 [1]: 1.5 | Dye Stability: OD at Day 7 [1]: 0.1 | Acetone Solubility After Exposure [2]: Yes | Acetone Solubility Before Exposure [2]: Yes | λmax [3]: 760 nm

N#CC(C#N)=C1C(=CC=CC=CC2=C(O)c3ccccc3C2=C(C#N)C#N)C(=O)c2ccccc21 [Dye B]
Absorption maximum in coating ([3]; dried coating of Example 5): 803 nm | OD at the absorption maximum ([3]; dried coating of Example 5, at 803 nm): 0.39
